{"source": "patent US11952369B2", "about": "(Kadmon Corporation, LLC, priority 2022, dated 2024)", "key": {"ROCK2": {"molecular_target": "T1, ROCK2 (Rattus norvegicus, UniProt Q62868)", "T1 construct": "Full length rat ROCK1 and ROCK2 proteins were isolated from various tumor cell lines or tissues by immunoabsorption; endogenous in cells", "T1 sequence (Q62868 whole entry)": "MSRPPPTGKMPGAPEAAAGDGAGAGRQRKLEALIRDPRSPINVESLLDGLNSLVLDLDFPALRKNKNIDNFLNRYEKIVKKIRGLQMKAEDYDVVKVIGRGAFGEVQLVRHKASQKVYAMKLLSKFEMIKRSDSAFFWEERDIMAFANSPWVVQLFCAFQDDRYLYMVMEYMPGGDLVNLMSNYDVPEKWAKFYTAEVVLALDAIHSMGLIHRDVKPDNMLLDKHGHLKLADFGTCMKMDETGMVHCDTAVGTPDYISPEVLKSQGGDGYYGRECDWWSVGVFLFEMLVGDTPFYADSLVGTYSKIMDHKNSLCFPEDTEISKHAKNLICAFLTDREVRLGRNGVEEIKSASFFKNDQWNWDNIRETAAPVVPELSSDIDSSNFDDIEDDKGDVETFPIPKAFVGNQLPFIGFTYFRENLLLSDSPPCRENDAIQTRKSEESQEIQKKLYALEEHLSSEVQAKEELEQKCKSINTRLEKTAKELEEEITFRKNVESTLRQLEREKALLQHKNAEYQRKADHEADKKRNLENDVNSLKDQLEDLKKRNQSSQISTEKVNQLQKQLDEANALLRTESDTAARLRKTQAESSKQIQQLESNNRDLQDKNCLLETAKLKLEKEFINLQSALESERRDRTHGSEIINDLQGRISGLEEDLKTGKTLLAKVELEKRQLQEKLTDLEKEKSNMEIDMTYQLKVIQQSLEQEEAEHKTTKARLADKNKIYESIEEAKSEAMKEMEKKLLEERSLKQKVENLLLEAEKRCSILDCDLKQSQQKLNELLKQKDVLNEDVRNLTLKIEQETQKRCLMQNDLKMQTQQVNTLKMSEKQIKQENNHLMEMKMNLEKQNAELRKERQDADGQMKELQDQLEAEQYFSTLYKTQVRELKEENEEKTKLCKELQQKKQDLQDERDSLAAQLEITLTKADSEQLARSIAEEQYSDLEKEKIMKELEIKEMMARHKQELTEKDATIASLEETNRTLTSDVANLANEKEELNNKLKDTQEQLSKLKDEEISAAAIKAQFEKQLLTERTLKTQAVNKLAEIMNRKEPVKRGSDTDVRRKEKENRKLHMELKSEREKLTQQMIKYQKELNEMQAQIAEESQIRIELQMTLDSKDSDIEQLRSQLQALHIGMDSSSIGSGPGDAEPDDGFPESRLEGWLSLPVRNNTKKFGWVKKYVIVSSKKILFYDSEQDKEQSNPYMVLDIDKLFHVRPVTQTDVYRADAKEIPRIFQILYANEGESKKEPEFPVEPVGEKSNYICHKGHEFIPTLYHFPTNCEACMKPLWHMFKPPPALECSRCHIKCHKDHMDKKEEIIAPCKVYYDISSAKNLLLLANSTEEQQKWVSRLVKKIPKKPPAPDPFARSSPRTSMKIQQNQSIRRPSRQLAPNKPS", "experiment": "Inhibition of ROCK2 enzymatic activity, immunoabsorbed full length enzyme, S6 kinase substrate peptide, [γ33P]ATP", "type": "biochemical", "conditions": "for Ki: ROCK2", "procedure": "Full length rat ROCK1 and ROCK2 proteins were isolated from various tumor cell lines or tissues by immunoabsorption to 24-well microtiter plates pre-coated with antibodies specific for each isozyme. Reactions were initiated by the addition of S6 kinase substrate peptide, [γ33P]ATP, and study drug, and incubated at 37° C. for 20 minutes. Reactions were terminated by addition of phosphoric acid and the radioactivity was quantified using standard methods."}, "cytochrome P450 CYP3A4": {"molecular_target": "cytochrome P450 CYP3A4 (Homo sapiens, UniProt P08684)", "sequence (P08684 whole entry)": "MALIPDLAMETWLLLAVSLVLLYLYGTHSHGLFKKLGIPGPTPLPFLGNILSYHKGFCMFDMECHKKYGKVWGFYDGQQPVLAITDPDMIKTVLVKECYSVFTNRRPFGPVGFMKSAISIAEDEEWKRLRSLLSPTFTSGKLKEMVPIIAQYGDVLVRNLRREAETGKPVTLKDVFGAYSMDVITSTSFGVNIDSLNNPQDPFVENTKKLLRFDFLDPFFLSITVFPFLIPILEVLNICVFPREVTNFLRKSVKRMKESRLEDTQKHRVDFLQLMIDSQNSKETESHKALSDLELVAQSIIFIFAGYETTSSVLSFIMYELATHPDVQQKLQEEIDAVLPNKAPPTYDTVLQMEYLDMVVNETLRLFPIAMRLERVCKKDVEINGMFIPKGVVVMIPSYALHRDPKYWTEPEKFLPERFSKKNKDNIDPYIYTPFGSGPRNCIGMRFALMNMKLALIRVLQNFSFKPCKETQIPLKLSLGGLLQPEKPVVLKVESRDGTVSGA", "experiment": "In vitro assessments of belumosudil metabolism", "type": "in vitro ADME"}, "Solubility": {"experiment": "Solubility", "type": "physicochemical", "conditions": "in vitro assessments"}, "[1]": {"experiment": "Phase 1 study part 1: absolute bioavailability, oral 200-mg tablet plus [14C]-belumosudil IV microtracer, plasma PK", "type": "in vivo, human", "conditions": "for F, AUCinf (absolute bioavailability, AUCinf,oral/AUCinf,IV): dose-adjusted", "procedure": "This was a single-center, nonrandomized, open-label, 2-part study in 5 healthy male subjects aged 30 to 65 years. All oral doses were administered following an overnight fast and a standard breakfast on the day of dosing.\n(timed to occur at the expected maximum concentration [Cmax]). To determine absolute bioavailability, a microtracer dose was chosen as it negates the need for an IV formulation with good stability. Additionally, due to use of a very low dose, further nonclinical studies such as local tolerance and general toxicology studies were not warranted.\nBlood samples for IV [^14C]-belumosudil PK analysis and total radioactivity were collected at −0.25, −0.16, −0.08, 0, 0.08, 0.16, 0.25, 0.5, 0.75, 1, 1.5, 2, 3, 4, 5, 6, 8, 10, 12, 22, 34, and 46 hours after the end of infusion (EOI). All samples were processed to plasma within 30 minutes of collection by centrifugation at 2000 g for 10 minutes at 4° C., and\nTotal [^14C]-belumosudil concentrations were determined by accelerator mass spectrometry (AMS). […] Selected samples were diluted with commercial plasma to ensure that concentrations would fall within the acceptable range for AMS analysis. The samples were converted to graphite through combustion to CO2 followed by reduction to graphite. The graphite targets were then analyzed by AMS (LLOQ of 0.00489, 0.00557, 0.00485, 0.00402, and 0.00372 ng equiv/mL for individual subjects). All ^14C data was background-corrected based on predose [^14C]-belumosudil concentrations.\nEluate fractions corresponding to [^14C]-belumosudil were collected before AMS analysis (LLOQ of 1.55 pg equiv/mL).\nPK parameter estimates were used to calculate absolute bioavailability and metabolite-to-parent ratio."}, "[2]": {"experiment": "Phase 1 study part 2: metabolite identification and profiling in plasma, urine and feces", "type": "in vivo, human", "conditions": "mean across subjects", "procedure": "To determine the most appropriate sampling pools for metabolite identification/profiling, plasma, urine, and fecal samples were pooled based on mass balance data obtained as described above. Plasma samples were pooled for individual subjects by time points that represented at least 80% of the plasma total radioactivity, as well as pooled across subjects before dosing and at 4-hour and 8-hour time points. Urine samples were pooled from 0 to 24 hours for individual subjects and across subjects for predose and 0- to 6-hour intervals. Fecal samples were pooled for individual subjects depending on time points that represented at least 80% of the […] total radioactivity and across subjects at 0- to 24- and 24- to 48-hour intervals.\n[^14C]-belumosudil concentrations were quantified by LC-MS/MS. Chemical structures were then identified for those radioactive components that accounted for >10% of circulating radioactivity in plasma and >10% of the dose in urine and feces. Radioactive components that represented <10% of circulating radioactivity in plasma and <10% of the dose in urine and feces were also identified. Metabolite identification was then performed using accurate mass positive and negative ion full scan and positive ion product ion analyses. […] Any identified components were compared with [^14C] radiochromatograms to identify the metabolite. Predose plasma and urine pools were used to correct for endogenous components during metabolite identification."}, "[3]": {"experiment": "Phase 1 study: safety assessments", "type": "in vivo, human", "procedure": "Safety was assessed throughout the study by AEs, vital signs, electrocardiograms, physical examinations, and clinical laboratory tests. The safety population included all subjects who received at least 1 dose of the study drug (oral or IV) in either part of the study."}, "[4]": {"experiment": "Metabolite exposure quantified in clinical trials of the belumosudil development program", "type": "in vivo, human", "conditions": "clinical trials across the belumosudil development program"}, "[5]": {"conditions": "arithmetic mean (standard deviation), Part 1, belumosudil after oral 200-mg tablet"}, "[6]": {"conditions": "arithmetic mean (standard deviation), Part 1, oral 200-mg tablet vs IV microtracer"}, "[7]": {"conditions": "geometric mean (geometric CV %), Part 1, belumosudil after oral 200-mg tablet"}, "[8]": {"conditions": "geometric mean (geometric CV %), Part 1, oral 200-mg tablet vs IV microtracer"}}, "note": "Where two headings read alike, the source gives them in different places."}
{"smiles": "CC(C)NC(=O)COc1cccc(-c2nc(Nc3ccc4[nH]ncc4c3)c3ccccc3n2)c1", "note": "[Belumosudil, 2-{3-[4-(1H-indazol-5-ylamino)-2-quinazolinyl]phenoxy}-N-(propan-2-yl) acetamide]", "values": [{"measurement": "Ki", "setting": "ROCK2", "result": "0.04 ± 0.005", "unit": "µM"}, {"measurement": "enzyme dependence of metabolism", "setting": "cytochrome P450 CYP3A4", "result": "primarily dependent on cytochrome P450 CYP3A4 activity"}, {"measurement": "pH dependence of solubility", "setting": "Solubility", "result": "pH dependent"}, {"measurement": "time at which peak belumosudil concentrations were reached after the oral dose", "setting": "[1]; Part 1, oral 200-mg tablet", "result": 3, "unit": "h"}, {"measurement": "AUCextrap", "setting": "[1]; [5]", "result": "2.18 (0.919) %"}, {"measurement": "AUCinf", "setting": "[1]; [5]", "result": "8890 (4240) ng or ng equiv × h/mL"}, {"measurement": "AUClast", "setting": "[1]; [5]", "result": "8730 (4270) ng or ng equiv × h/mL"}, {"measurement": "Clearanance (apparent clearance)", "setting": "[1]; [5]", "result": "423 (126) mL/min"}, {"measurement": "Cmax", "setting": "[1]; [5]", "result": "1960 (649) ng or ng equiv/mL"}, {"measurement": "F, AUCinf (absolute bioavailability)", "setting": "[1]; [6]", "result": "64.5 (10.4) %"}, {"measurement": "F, Cmax (bioavailability)", "setting": "[1]; [6]", "result": "23.8 (2.21) %"}, {"measurement": "AUCextrap", "setting": "[1]; [7]", "result": "1.95 (64.6); %"}, {"measurement": "AUCinf", "setting": "[1]; [7]", "result": "8300 (40.2); ng or ng equiv × h/mL"}, {"measurement": "AUClast", "setting": "[1]; [7]", "result": "8120 (41.2); ng or ng equiv × h/mL"}, {"measurement": "Clearanance (apparent clearance)", "setting": "[1]; [7]", "result": "402 (40.2); mL/min"}, {"measurement": "Cmax", "setting": "[1]; [7]", "result": "1870 (36.7); ng or ng equiv/mL"}, {"measurement": "F, Cmax (bioavailability)", "setting": "[1]; [8]", "result": "23.7(9.3); %"}, {"measurement": "F, AUCinf (absolute bioavailability, AUCinf,oral/AUCinf,IV)", "setting": "[1]; [8]", "result": "63.7 (17.3); %"}, {"measurement": "F, AUCinf (absolute bioavailability, AUCinf,oral/AUCinf,IV)", "setting": "[1]; geometric mean (geometric CV %), Part 1, oral 200-mg tablet vs IV microtracer, listed as belumosudil", "result": 63.7, "unit": "%"}, {"measurement": "half-life", "setting": "[1]; male, human, plasma, other: intravenous and oral, IV and oral dosing comparable, read-out: half-life values following IV and oral dosing", "result": "5 to 6", "unit": "h"}, {"measurement": "Tmax", "setting": "[1]; male, human, plasma, po, 200 mg", "result": 2, "unit": "h"}, {"measurement": "half-life", "setting": "[1]; male, human, plasma, po, 200 mg, arithmetic mean (standard deviation), Part 1, belumosudil after oral 200-mg tablet, read-out: T1/2 (converted)", "result": 6.05, "unit": "h"}, {"measurement": "half-life", "setting": "[1]; male, human, plasma, po, 200 mg, geometric mean (geometric CV %), Part 1, belumosudil after oral 200-mg tablet, read-out: T1/2 (terminal half-life) (converted)", "result": 5.3, "unit": "h"}, {"measurement": "% ROI, feces (mean % contribution to total sample radioactivity)", "setting": "[2]", "result": "(29.60) %"}, {"measurement": "% ROI, feces (mean % contribution to total sample radioactivity)", "setting": "[2]; listed as belumosudil", "result": 30, "unit": "%"}, {"measurement": "% ROI, plasma (mean % contribution to total plasma radioactivity)", "setting": "[2]", "result": "P6 (64.17) %"}, {"measurement": "% ROI, plasma (mean % contribution to total plasma radioactivity)", "setting": "[2]; listed as belumosudil", "result": 64, "unit": "%"}, {"measurement": "laboratory, vital sign, electrocardiogram, physical examination findings", "setting": "[3]; either part of the study", "result": "No clinically significant laboratory, vital sign, electrocardiogram, or physical examination findings"}, {"measurement": "deaths, serious AEs, severe AEs, AEs leading to withdrawal", "setting": "[3]; healthy male subjects, both parts of the study", "result": "no deaths, serious AEs, AEs of severe intensity, or AEs leading to subject withdrawal"}, {"measurement": "treatment-emergent AE", "setting": "[3]; part 1, 200-mg tablet followed by [14C]-belumosudil microtracer infusion, one event, resolved spontaneously 2.5 hours after onset", "result": "mild, possibly related rash"}, {"measurement": "treatment-emergent AEs", "setting": "[3]; part 2, 200-mg [14C]-belumosudil capsule", "result": "no treatment-emergent AEs were reported"}]}
{"smiles": "NC(=O)COc1cccc(-c2nc(Nc3ccc4[nH]ncc4c3)c3ccccc3n2)c1", "note": "[KD025m1, 2-(3-(4-(1H-indazol-5-ylamino)quinazolin-2-yl)phenoxy)acetamide]", "values": [{"measurement": "Ki", "setting": "ROCK2", "result": "0.055 ± 0.002", "unit": "µM"}, {"measurement": "inhibition of ROCK2 (Ki) relative to belumosudil", "setting": "ROCK2; fold lower inhibition than belumosudil", "result": "comparable"}, {"measurement": "exposure relative to the parent", "setting": "[4]", "result": "< 5", "unit": "%"}]}
